Assays:
[1] = test system: patients with liver cancer; assay: Hematological toxicity - Platelets, worst CTC Grade by cycle, intrahepatic artery nemorubicin q8wk vs q6wk; format: in vivo, human
Description: (§1) The objective of the study was to shorten the time interval between treatment administrations from every 8 weeks (q8wk) of the protocol as reported in WO 00/15203 to every 6 weeks (q6wk). This was done in the attempt of improving the therapeutic potential of nemorubicin treatment through an increase of the dose intensity of the therapy, simultaneously safeguarding patient safety.
(§2) Overall, 13 patients were treated with the q8wk schedule (total 25 cycles administered; doses ranged from 200 to 800 mcg/m^2), and 11 patients were treated with the q6wk schedule (total 32 cycles administered; doses were 200 and 600 mcg/m^2).
(§3) The NCI-Common Tosicity Criteria grading system (CTC Grade), Version 2.0, was used to report toxicities.
(§4) A slight cumulative effect (i.e., increase in frequency but not in severity) was observed after repeated cycles for leucopenia and neutropenia (Tables 2 and 3), mainly with the q8wk schedule.

[2] = test system: patients with liver cancer; assay: Hematological toxicity - Leucocytes, worst CTC Grade by cycle, intrahepatic artery nemorubicin q8wk vs q6wk; format: in vivo, human
Description: as §1, §2, §3, §4

[3] = 200 mcg/m^2 q6wk, All cycles, 11 evaluable cycles
[4] = 200 mcg/m^2 q6wk, Cycle 1, 5 evaluable cycles
[5] = 200 mcg/m^2 q6wk, Cycles > 1, 6 evaluable cycles
[6] = 200 mcg/m^2 q8wk, All cycles, 5 evaluable cycles
[7] = 200 mcg/m^2 q8wk, Cycle 1, 3 evaluable cycles
[8] = 200 mcg/m^2 q8wk, Cycles > 1, 2 evaluable cycles
[9] = 400 mcg/m^2 q8wk, All cycles, 4 evaluable cycles
[10] = 400 mcg/m^2 q8wk, Cycle 1, 3 evaluable cycles
[11] = 600 mcg/m^2 q6wk, All cycles, 18 evaluable cycles
[12] = 600 mcg/m^2 q6wk, Cycle 1, 6 evaluable cycles
[13] = 600 mcg/m^2 q6wk, Cycles > 1, 12 evaluable cycles
[14] = 600 mcg/m^2 q8wk, All cycles, 8 evaluable cycles
[15] = 600 mcg/m^2 q8wk, Cycle 1, 4 evaluable cycles
[16] = 600 mcg/m^2 q8wk, Cycles > 1, 4 evaluable cycles
[17] = 800 mcg/m^2 q8wk, All cycles, 3 evaluable cycles
[18] = 800 mcg/m^2 q8wk, Cycle 1, 3 evaluable cycles

COc1cccc2c1C(=O)c1c(O)c3c(c(O)c1C2=O)C[C@@](O)(C(=O)CO)C[C@@H]3O[C@H]1C[C@H](N2CCO[C@H](OC)C2)[C@H](O)[C@H](C)O1.Cl [nemorubicin, 3′desamino-3′[2(S)methoxy-4-morpholinyl]doxorubicin-hydrochloride]
Platelets, worst CTC Grade by cycle: All Grades (%) [1, 3]: 10 (91%) (%)
Platelets, worst CTC Grade by cycle: Grade 1-2 (%) [1, 3]: 10 (91%) (%)
Platelets, worst CTC Grade by cycle: All Grades (%) [1, 4]: 4 (80%) (%)
Platelets, worst CTC Grade by cycle: Grade 1-2 (%) [1, 4]: 4 (80%) (%)
Platelets, worst CTC Grade by cycle: All Grades (%) [1, 5]: 6 (100%) (%)
Platelets, worst CTC Grade by cycle: Grade 1-2 (%) [1, 5]: 6 (100%) (%)
Platelets, worst CTC Grade by cycle: All Grades (%) [1, 6]: 5 (100%) (%)
Platelets, worst CTC Grade by cycle: Grade 1-2 (%) [1, 6]: 5 (100%) (%)
Platelets, worst CTC Grade by cycle: All Grades (%) [1, 7]: 3 (100%) (%)
Platelets, worst CTC Grade by cycle: Grade 1-2 (%) [1, 7]: 3 (100%) (%)
Platelets, worst CTC Grade by cycle: All Grades (%) [1, 8]: 2 (100%) (%)
Platelets, worst CTC Grade by cycle: Grade 1-2 (%) [1, 8]: 2 (100%) (%)
Platelets, worst CTC Grade by cycle: All Grades (%) [1, 9]: 1 (25%) (%)
Platelets, worst CTC Grade by cycle: Grade 1-2 (%) [1, 9]: 1 (25%) (%)
Platelets, worst CTC Grade by cycle: All Grades (%) [1, 10]: 1 (33%) (%)
Platelets, worst CTC Grade by cycle: Grade 1-2 (%) [1, 10]: 1 (33%) (%)
Platelets, worst CTC Grade by cycle: All Grades (%) [1, 11]: 17 (94%) (%)
Platelets, worst CTC Grade by cycle: Grade 1-2 (%) [1, 11]: 17 (94%) (%)
Platelets, worst CTC Grade by cycle: All Grades (%) [1, 12]: 6 (100%) (%)
Platelets, worst CTC Grade by cycle: Grade 1-2 (%) [1, 12]: 6 (100%) (%)
Platelets, worst CTC Grade by cycle: All Grades (%) [1, 13]: 11 (92%) (%)
Platelets, worst CTC Grade by cycle: Grade 1-2 (%) [1, 13]: 11 (92%) (%)
Platelets, worst CTC Grade by cycle: All Grades (%) [1, 14]: 8 (100%) (%)
Platelets, worst CTC Grade by cycle: Grade 1-2 (%) [1, 14]: 7 (87%) (%)
Platelets, worst CTC Grade by cycle: Grade 3 (%) [1, 14]: 1 (12%) (%)
Platelets, worst CTC Grade by cycle: All Grades (%) [1, 15]: 4 (100%) (%)
Platelets, worst CTC Grade by cycle: Grade 1-2 (%) [1, 15]: 4 (100%) (%)
Platelets, worst CTC Grade by cycle: All Grades (%) [1, 16]: 4 (100%) (%)
Platelets, worst CTC Grade by cycle: Grade 1-2 (%) [1, 16]: 3 (75%) (%)
Platelets, worst CTC Grade by cycle: Grade 3 (%) [1, 16]: 1 (25%) (%)
Platelets, worst CTC Grade by cycle: All Grades (%) [1, 17]: 2 (67%) (%)
Platelets, worst CTC Grade by cycle: Grade 1-2 (%) [1, 17]: 2 (67%) (%)
Platelets, worst CTC Grade by cycle: All Grades (%) [1, 18]: 2 (67%) (%)
Platelets, worst CTC Grade by cycle: Grade 1-2 (%) [1, 18]: 2 (67%) (%)
thrombocytopenia, maximum severity (CTC Grade) ([1]; only one patient treated at 600 mcg/m^2 q8wk after repeated cycles): Grade 3
Leucocytes, worst CTC Grade by cycle: All Grades (%) [2, 3]: 4 (36%) (%)
Leucocytes, worst CTC Grade by cycle: Grade 1-2 (%) [2, 3]: 3 (27%) (%)
Leucocytes, worst CTC Grade by cycle: All Grades (%) [2, 4]: 1 (20%) (%)
Leucocytes, worst CTC Grade by cycle: All Grades (%) [2, 5]: 3 (50%) (%)
Leucocytes, worst CTC Grade by cycle: Grade 1-2 (%) [2, 5]: 3 (50%) (%)
Leucocytes, worst CTC Grade by cycle: All Grades (%) [2, 6]: 4 (80%) (%)
Leucocytes, worst CTC Grade by cycle: Grade 1-2 (%) [2, 6]: 4 (80%) (%)
Leucocytes, worst CTC Grade by cycle: All Grades (%) [2, 7]: 2 (67%) (%)
Leucocytes, worst CTC Grade by cycle: Grade 1-2 (%) [2, 7]: 2 (67%) (%)
Leucocytes, worst CTC Grade by cycle: All Grades (%) [2, 8]: 2 (100%) (%)
Leucocytes, worst CTC Grade by cycle: Grade 1-2 (%) [2, 8]: 2 (100%) (%)
Leucocytes, worst CTC Grade by cycle: All Grades (%) [2, 9]: 1 (25%) (%)
Leucocytes, worst CTC Grade by cycle: Grade 1-2 (%) [2, 9]: 1 (25%) (%)
Leucocytes, worst CTC Grade by cycle: All Grades (%) [2, 10]: 1 (33%) (%)
Leucocytes, worst CTC Grade by cycle: Grade 1-2 (%) [2, 10]: 1 (33%) (%)
Leucocytes, worst CTC Grade by cycle: All Grades (%) [2, 11]: 8 (44%) (%)
Leucocytes, worst CTC Grade by cycle: Grade 1-2 (%) [2, 11]: 8 (44%) (%)
Leucocytes, worst CTC Grade by cycle: All Grades (%) [2, 12]: 2 (33%) (%)
Leucocytes, worst CTC Grade by cycle: Grade 1-2 (%) [2, 12]: 2 (33%) (%)
Leucocytes, worst CTC Grade by cycle: All Grades (%) [2, 13]: 6 (50%) (%)
Leucocytes, worst CTC Grade by cycle: Grade 1-2 (%) [2, 13]: 6 (50%) (%)
Leucocytes, worst CTC Grade by cycle: All Grades (%) [2, 14]: 7 (87%) (%)
Leucocytes, worst CTC Grade by cycle: Grade 1-2 (%) [2, 14]: 7 (87%) (%)
Leucocytes, worst CTC Grade by cycle: All Grades (%) [2, 15]: 3 (75%) (%)
Leucocytes, worst CTC Grade by cycle: Grade 1-2 (%) [2, 15]: 3 (75%) (%)
Leucocytes, worst CTC Grade by cycle: All Grades (%) [2, 16]: 4 (100%) (%)
Leucocytes, worst CTC Grade by cycle: Grade 1-2 (%) [2, 16]: 4 (100%) (%)

From patent US20060264388A1, “Method for treating liver cancer by intrahepatic administration of nemorubicin” (priority 2003, published 2006)
